Assay results reported in US20220098203A1 (priority 2018, published 2022).
pIC50: −log10 of the molar value. Like-named read-outs stand apart in the source and are kept apart here.

Columns and labels:
[1] = system: SAM in HCT116 MTAP-deleted cells; assay: Cellular assay of target engagement (SAM), LC-MS/MS; type: cell-based, human; conditions: 72 h, read-out: Cell 72 h SAM Inhibition (MTAP −/−)
Method in brief: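 Target engagement was read as intracellular SAM, measured by LC-MS/MS with d3-SAM as internal standard in methanol/acetic acid extracts. These came from MTAP-deleted HCT116 colon carcinoma cells exposed to inhibitor for 72 hrs.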

MAT2A homodimer = target: T1, MAT2A homodimer (Homo sapiens, UniProt P31153); assay: MAT2A biochemical assay (liberated phosphate, PiColorLock Gold); conditions: Table 5a; MAT2A biochemical assay; read-out: Enzyme Inhibition
T1 construct: inferred from the Ni sepharose purification and imidazole elution; made in house; host or cells: SF9 insect cells, recombinant baculovirus (Bac to Bac, pFASTBAC1)
T1 sequence (P31153 whole entry): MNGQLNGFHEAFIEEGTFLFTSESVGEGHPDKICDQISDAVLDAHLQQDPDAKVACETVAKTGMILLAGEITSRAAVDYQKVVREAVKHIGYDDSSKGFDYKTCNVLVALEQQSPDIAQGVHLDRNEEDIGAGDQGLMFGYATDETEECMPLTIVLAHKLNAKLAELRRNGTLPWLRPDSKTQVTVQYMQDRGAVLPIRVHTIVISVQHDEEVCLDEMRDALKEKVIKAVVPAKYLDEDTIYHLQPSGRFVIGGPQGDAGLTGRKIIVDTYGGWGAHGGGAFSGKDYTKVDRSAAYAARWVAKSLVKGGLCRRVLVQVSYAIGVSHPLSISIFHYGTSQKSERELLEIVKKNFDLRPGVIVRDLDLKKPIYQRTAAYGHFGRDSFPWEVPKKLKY
Method in brief: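 Readout is liberated phosphate (PiColorLock Gold), stoichiometric with SAM production, quantified against a potassium phosphate standard curve. Enzyme: recombinant MAT2A homodimer from Sf9, equilibrated 60 min at 25 °C with compound before 60 min reaction with substrate mix containing 500 μM ATP and 400 μM L-methionine.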

HCT116 MTAP-/- = assay: Inhibition of cellular proliferation (Cell Titer Glo), HCT116 MTAP-/-; type: cell-based, human; conditions: 4 days, read-out: 4 Day Relative Growth Inhibition (MTAP −/−)
Method in brief: (§1)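 After 4 days of compound exposure at 37 °C, starting 24 h after plating, growth of the MTAP-wildtype and MTAP-deleted HCT116 pair was measured as ATP luminescence (CellTiter-Glo). The proliferation index was signal minus no-cell blank, divided by blank-corrected 0.2% DMSO control.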

HCT116 MTAP+/+ = assay: Inhibition of cellular proliferation (Cell Titer Glo), HCT116 MTAP+/+; type: cell-based; conditions: Homo sapiens, HCT-116, 96 h, Table 5a, 4 days, read-out: 4 Day Relative Growth Inhibition (MTAP +/+)
Method in brief: as §1

[2] = Homo sapiens, HCT-116, Table 5a
[3] = Homo sapiens, HCT-116, 96 h, Table 5a
[4] = Table 6, select pairs of compounds

| SMILES | pIC50 [1, 2] | pIC50 (MAT2A homodimer) | pIC50 (HCT116 MTAP-/-; [3]) | pIC50 (HCT116 MTAP+/+) | pIC50 [1, 4] | pIC50 (HCT116 MTAP-/-; [4]) |
| --- | --- | --- | --- | --- | --- | --- |
| COc1ccc(N2Cc3cnc(NCC(F)(F)F)nc3N(c3ccc(OC)cc3)C2=O)cc1 [Example 255, 1,3-bis(4-methoxyphenyl)-7-((2,2,2-trifluoroethyl)amino)-3,4-dihydropyrimido[4,5-d]pyrimidin-2(1H)-one] | 6.00 to 7.00 | > 7.00 | 6.00 to 7.00 | < 6.00 | – | – |
| COc1ccc(N2Cc3cnc(NCC(F)(F)F)nc3N(c3ccc(OC)nc3)C2=O)cc1 [Example 261] | 6.00 to 7.00 | 6.00 to 7.00 | < 6.00 | < 6.00 | – | – |
| Cn1cc2cc(N3Cc4cnc(NCC(F)(F)F)cc4N(c4ccc(OC(F)F)cc4)C3=O)ccc2n1 [Example 268] | 6.00 to 7.00 | > 7.00 | < 6.00 | < 6.00 | – | – |
| CCNc1ccc2c(n1)N(c1ccc(OC(F)F)cc1)C(=O)N(c1ccc3nn(C)cc3c1)C2 [Example 269] | 6.00 to 7.00 | > 7.00 | 6.00 to 7.00 | < 6.00 | 6.00 to 7.00 | 6.00 to 7.00 |
| Cn1cnc2ccc(N3Cc4ccc(OCC(F)(F)F)nc4N(c4ccc(OC(F)F)cc4)C3=O)cc21 [Example 273] | 6.00 to 7.00 | > 7.00 | 6.00 to 7.00 | < 6.00 | – | – |
| CCOc1ccc2c(n1)N(c1ccc(OC(F)F)nc1)C(=O)N(c1ccc3nn(C)cc3c1)C2 [Example 275] | 6.00 to 7.00 | > 7.00 | 6.00 to 7.00 | 6.00 to 7.00 | – | – |
| Cn1cc2cc(N3Cc4ccc(OCC(F)F)nc4N(c4ccc5ocnc5c4)C3=O)ccc2n1 [Example 283, 1-(benzo[d]oxazol-5-yl)-7-(2,2-difluoroethoxy)-3-(2-methyl-2H-indazol-5-yl)-3,4-dihydropyrido[2,3-d]pyrimidin-2(1H)-one] | 6.00 to 7.00 | > 7.00 | 6.00 to 7.00 | 6.00 to 7.00 | – | – |
| Cn1cc2cc(N3Cc4cc(F)c(OCC(F)F)cc4N(c4ccc(OC(F)F)cc4)C3=O)ccc2n1 [Example 285, 7-(2,2-difluoroethoxy)-1-(4-(difluoromethoxy)phenyl)-6-fluoro-3-(2-methyl-2H-indazol-5-yl)-3,4-dihydroquinazolin-2(1H)-one] | 6.00 to 7.00 | > 7.00 | 6.00 to 7.00 | < 6.00 | – | – |
| CCOc1ccc2c(c1)N(c1ccc(OC(F)F)cc1)C(=O)N(c1ccc3nn(C)cc3c1)C2 [Example 287, 1-[4-(difluoromethoxy)phenyl]-7-ethoxy-3-(2-methyl-2H-indazol-5-yl)-1,2,3,4-tetrahydroquinazolin-2-one] | 6.00 to 7.00 | > 7.00 | 6.00 to 7.00 | 6.00 to 7.00 | – | – |
| Cn1cc2cc(N3Cc4ccc(NCC(F)(F)F)cc4N(c4ccc(OC(F)F)cc4)C3=O)ccc2n1 [Example 288] | 6.00 to 7.00 | > 7.00 | 6.00 to 7.00 | < 6.00 | – | – |
| CCOc1cnc2c(c1)N(c1ccc(OC(F)F)cc1)C(=O)N(c1ccc(OC)cc1)C2 [Example 289, 1-(4-(difluoromethoxy)phenyl)-7-ethoxy-3-(4-methoxyphenyl)-3,4-dihydropyrido[3,2-d]pyrimidin-2(1H)-one] | < 6.00 | 6.00 to 7.00 | < 6.00 | < 6.00 | – | – |
| CCOc1cnc2c(c1)N(c1ccc(OC(F)F)cc1)C(=O)N(c1ccc3nn(C)cc3c1)C2 [Example 290] | 6.00 to 7.00 | > 7.00 | 6.00 to 7.00 | < 6.00 | – | – |
| CCOc1cnc2c(c1)N(c1ccc(Cl)cc1)C(=O)N(c1ccc3nn(C)cc3c1)C2 [Example 291] | 6.00 to 7.00 | 6.00 to 7.00 | < 6.00 | < 6.00 | – | – |

The remaining lines, values ahead:

| pIC50 [1, 2] | pIC50 (MAT2A homodimer) | pIC50 (HCT116 MTAP-/-; [3]) | pIC50 (HCT116 MTAP+/+) | pIC50 [1, 4] | pIC50 (HCT116 MTAP-/-; [4]) | SMILES |
| --- | --- | --- | --- | --- | --- | --- |
| 6.00 to 7.00 | > 7.00 | 6.00 to 7.00 | < 6.00 | – | – | COc1ccc(N2Cc3cnc(NCC(F)(F)F)nc3N(c3ccc(C4CC4)cc3)C2=O)cc1 [Example 242, 1-(4-cyclopropylphenyl)-3-(4-methoxyphenyl)-7-((2,2,2-trifluoroethyl)amino)-3,4-dihydropyrimido[4,5-d]pyrimidin-2(1H)-one] |
| 6.00 to 7.00 | > 7.00 | 6.00 to 7.00 | < 6.00 | – | – | COc1ccc(N2C(=O)N(c3ccc4nn(C)cc4c3)Cc3c(OC)nc(NCC(F)(F)F)nc32)cc1 [Example 246, 5-methoxy-1-(4-methoxyphenyl)-3-(2-methyl-2H-indazol-5-yl)-7-((2,2,2-trifluoroethyl)amino)-3,4-dihydropyrimido[4,5-d]pyrimidin-2(1H)-one] |
| > 7.00 | > 7.00 | > 7.00 | 6.00 to 7.00 | – | – | COc1ccc(N2C(=O)N(c3ccc4nn(C)cc4c3)Cc3c(C)nc(NCC(F)(F)F)nc32)cc1 [Example 247, 1-(4-methoxyphenyl)-5-methyl-3-(2-methyl-2H-indazol-5-yl)-7-((2,2,2-trifluoroethyl)amino)-3,4-dihydropyrimido[4,5-d]pyrimidin-2(1H)-one] |
| 6.00 to 7.00 | 6.00 to 7.00 | < 6.00 | < 6.00 | – | – | COc1ccc(N2Cc3cnc(NCC(F)(F)F)nc3N(c3ccc(C(F)(F)F)cc3)C2=O)cc1 [Example 250, 3-(4-methoxyphenyl)-7-((2,2,2-trifluoroethyl)amino)-1-(4-(trifluoromethyl)phenyl)-3,4-dihydropyrimido[4,5-d]pyrimidin-2(1H)-one] |
| 6.00 to 7.00 | 6.00 to 7.00 | < 6.00 | < 6.00 | – | – | COc1ccc(N2Cc3cnc(NCC(F)(F)F)nc3N(c3ccc(Cl)cc3)C2=O)cc1 [Example 252, 1-(4-chlorophenyl)-3-(4-methoxyphenyl)-7-((2,2,2-trifluoroethyl)amino)-3,4-dihydropyrimido[4,5-d]pyrimidin-2(1H)-one] |
| > 7.00 | > 7.00 | > 7.00 | < 6.00 | > 7.00 | > 7.00 | Cn1cc2cc(N3Cc4ccc(NCC(F)(F)F)nc4N(c4ccc(OC(F)F)cc4)C3=O)ccc2n1 [Example 264, 1-(4-(difluoromethoxy)phenyl)-3-(2-methyl-2H-indazol-5-yl)-7-((2,2,2-trifluoroethyl)amino)-3,4-dihydropyrido[2,3-d]pyrimidin-2(1H)-one] |
| > 7.00 | > 7.00 | 6.00 to 7.00 | < 6.00 | – | – | Cn1cc2cc(N3Cc4ccc(OCC(F)(F)F)nc4N(c4ccc(OC(F)F)cc4)C3=O)ccc2n1 [Example 270] |
| > 7.00 | > 7.00 | > 7.00 | > 7.00 | > 7.00 | > 7.00 | Cn1cnc2ccc(N3Cc4ccc(NCC(F)(F)F)nc4N(c4ccc(OC(F)F)cc4)C3=O)cc21 [Example 271] |
| > 7.00 | > 7.00 | 6.00 to 7.00 | < 6.00 | – | – | CCOc1ccc2c(n1)N(c1ccc(OC(F)F)cc1)C(=O)N(c1ccc3ncn(C)c3c1)C2 [Example 272] |
| > 7.00 | > 7.00 | > 7.00 | < 6.00 | > 7.00 | > 7.00 | CCNc1ccc2c(n1)N(c1ccc(OC(F)F)cc1)C(=O)N(c1ccc3ncn(C)c3c1)C2 [Example 274] |
| > 7.00 | > 7.00 | > 7.00 | < 6.00 | – | – | CCOc1ccc2c(n1)N(c1ccc(CF)nc1)C(=O)N(c1ccc3nn(C)cc3c1)C2 [Example 282, 7-ethoxy-1-(6-(fluoromethyl)pyridin-3-yl)-3-(2-methyl-2H-indazol-5-yl)-3,4-dihydropyrido[2,3-d]pyrimidin-2(1H)-one] |
| > 7.00 | > 7.00 | > 7.00 | < 6.00 | – | – | CCCc1ccc2c(n1)N(c1ccc(OC)cc1)C(=O)N(c1ccc3nn(C)cc3c1)C2 [Example 294, 1-(4-methoxyphenyl)-3-(2-methyl-2H-indazol-5-yl)-7-propyl-3,4-dihydropyrido[2,3-d]pyrimidin-2(1H)-one] |
| > 7.00 | > 7.00 | 6.00 to 7.00 | < 6.00 | – | – | Cn1cc2cc(N3Cc4ccc(OCC(F)F)nc4N(c4ccc(O)cc4)C3=O)ccc2n1 [Example 295, 7-(2,2-difluoroethoxy)-1-(4-hydroxyphenyl)-3-(2-methyl-2H-indazol-5-yl)-3,4-dihydropyrido[2,3-d]pyrimidin-2(1H)-one] |
| > 7.00 | > 7.00 | > 7.00 | < 6.00 | – | – | [2H]C([2H])([2H])Oc1ccc(N2C(=O)N(c3ccc4nc(C)n(C)c4c3)Cc3ccc(OCC(F)F)nc32)cc1 [Example 401, 7-(2,2-difluoroethoxy)-3-(1,2-dimethyl-1H-benzo[d]imidazol-6-yl)-1-(4-(methoxy-d3)phenyl)-3,4-dihydropyrido[2,3-d]pyrimidin-2(1H)-one] |
